Data reported in BindingDB's records for doi:10.1016/s0960-894x(03)00408-6 (Millennium Pharmaceuticals, 2003).

How the values were obtained:
[1] = target: cAMP-dependent protein kinase catalytic subunit alpha/beta/gamma (Homo sapiens, UniProt P17612+P22694+P22612); test: Inhibitory activity against protein kinase A.
[2] = target: Protein kinase C (PKC); test: Inhibitory activity against protein kinase C.

Row | SMILES | IC50 [1] [µM] | IC50 [2] [µM]
1 | Clc1cc2c3cc[nH]cc-3nc2c(Cl)c1OCC1CC1 [6,8-Dichloro-7-cyclopropylmethoxy-9H-beta-carboline] | > 25 | > 25
2 | COc1ccc(C(=O)Nc2cc(Cl)cc3c4cc[nH]cc-4nc23)cc1 [N-(6-Chloro-9H-beta-carbolin-8-yl)-4-methoxy-benzamide] | > 25 | > 25

More lines, now with the values ahead:

Row | IC50 [1] [µM] | IC50 [2] [µM] | SMILES
3 | > 25 | > 25 | O=[N+]([O-])c1cc(Cl)cc2c1[nH]c1cnccc12 [6-Chloro-8-nitro-9H-beta-carboline]
4 | > 25 | > 25 | COc1ccccc1C(=O)Nc1cc(Cl)cc2c3cc[nH]cc-3nc12 [N-(6-Chloro-9H-beta-carbolin-8-yl)-2-methoxy-benzamide]
5 | > 25 | > 25 | COc1cccc(C(=O)Nc2cc(Cl)cc3c4cc[nH]cc-4nc23)c1 [N-(6-Chloro-9H-beta-carbolin-8-yl)-3-methoxy-benzamide]
